Tests used:
Type in all cases: in vivo
[1] = test system: Russian thistle (Salsola kali); experiment: Test D postemergence controlled growth environment test
Description: (§1) Seeds of plant species selected from blackgrass (Alopecurus myosuroides), galium (catchweed bedstraw, Galium aparine), kochia (Kochia scoparia), oilseed rape (Brassica napus), barley, spring (Hordeum vulgare), wheat, spring (Triticum aestivum), oat, wild (Avena fatua), barley, winter (Hordeum vulgare) and wheat, winter (Triticum aestivum) were planted into a silt loam soil and treated preemergence with test chemicals formulated in a non-phytotoxic solvent mixture which included a surfactant.
(§2) At the same time, plants selected from these crop and weed species and also bluegrass (annual bluegrass, Poa annua), canarygrass (littleseed canarygrass, Phalaris minor), chickweed (common chickweed, Stellaria media), bromegrass, downy (downy bromegrass, Bromus tectorum), field poppy (Papaver rhoeas), field violet (Viola arvensis), foxtail, green (Setaria viridis), deadnettle (henbit deadnettle, Lamium amplexicaule), ryegrass, Italian (Lolium multiflorum), lambsquarters (Chenopodium album), pigweed (Amaranthus retroflexus), chamomile (scentless chamomile, Matricaria inodora), Russian thistle (Salsola kali), speedwell (bird's-eye speedwell, Veronica persica), buckwheat, wild (Polygonum convolvulus), mustard, wild (Sinapis arvensis), radish, wild (Raphanus raphanistrum), windgrass (Apera spica-venti), geranium, cutleaf (Geranium dissectum) and Canada thistle (Cirsium arvense) were planted in pots containing Redi-Earth® planting medium (Scotts Company, 14111 Scottslawn Road, Marysville, Ohio 43041) comprising spaghnum peat moss, vermiculite, wetting agent and starter nutrients and treated with postemergence applications of the test chemicals formulated in the same manner. Plants ranged in height from 2 to 18 cm (1- to 4-leaf stage). Treated plants and controls were maintained in a controlled growth environment for 14 to 21 d after which time all species were compared to controls and visually evaluated. Plant response ratings, summarized in Table D, are based on a scale of 0 to 100 where 0 is no effect and 100 is complete control. A dash (-) response means no test result.

[2] = test system: geranium, cutleaf (Geranium dissectum); experiment: as above
Description: as §1, §2

[3] = test system: bromegrass, downy (downy bromegrass, Bromus tectorum); experiment: as above
Description: as §1, §2

[4] = test system: Canada thistle (Cirsium arvense); experiment: as above
Description: as §1, §2

[5] = test system: bluegrass (annual bluegrass, Poa annua); experiment: as above
Description: as §1, §2

[6] = test system: windgrass (Apera spica-venti); experiment: as above
Description: as §1, §2

[7] = test system: lambsquarters (Chenopodium album); experiment: as above
Description: as §1, §2

[8] = test system: foxtail, green (Setaria viridis); experiment: as above
Description: as §1, §2

[9] = test system: pigweed (Amaranthus retroflexus); experiment: as above
Description: as §1, §2

[10] = test system: field violet (Viola arvensis); experiment: as above
Description: as §1, §2

[11] = test system: buckwheat, wild (Polygonum convolvulus); experiment: as above
Description: as §1, §2

[12] = test system: deadnettle (henbit deadnettle, Lamium amplexicaule); experiment: as above
Description: as §1, §2

[13] = test system: canarygrass (littleseed canarygrass, Phalaris minor); experiment: as above
Description: as §1, §2

[14] = test system: mustard, wild (Sinapis arvensis); experiment: as above
Description: as §1, §2

[15] = test system: radish, wild (Raphanus raphanistrum); experiment: as above
Description: as §1, §2

[16] = test system: speedwell (bird's-eye speedwell, Veronica persica); experiment: as above
Description: as §1, §2

[17] = test system: field poppy (Papaver rhoeas); experiment: as above
Description: as §1, §2

[18] = test system: chickweed (common chickweed, Stellaria media); experiment: as above
Description: as §1, §2

[19] = test system: Bulrush, Japanese (Scirpus juncoides); experiment: Test C flooded paddy test; settings: Flood, scale 0 to 100

Cc1ccc2ccc(C)c(-c3c(O)c(Cl)nn(C)c3=O)c2c1 [Cpd. No. 20, 6-chloro-4-(2,7-dimethyl-1-naphthalenyl)-5-hydroxy-2-methyl-3(2H)-pyridazinone]
99: Plant response rating, Buckwheat, Wild ([11]; 62 g ai/ha) | Plant response rating, Chickweed ([18]; 16 g ai/ha) | Plant response rating, Chickweed ([18]; 31 g ai/ha)
85: Plant response rating, Russian Thistle ([1]; 125 g ai/ha) | Plant response rating, Geranium, Cutleaf ([2]; 125 g ai/ha) | Plant response rating, Canada Thistle ([4]; 31 g ai/ha) | Plant response rating, Foxtail, Green ([8]; 16 g ai/ha) | Plant response rating, Deadnettle ([12]; 62 g ai/ha) | Plant response rating, Speedwell ([16]; 125 g ai/ha) | Plant response rating, Field Poppy ([17]; 31 g ai/ha)
20: Plant response rating, Canarygrass ([13]; 62 g ai/ha) | Plant response rating, Mustard, Wild ([14]; 16 g ai/ha)
95: Plant response rating, Canada Thistle ([4]; 62 g ai/ha) | Plant response rating, Canada Thistle ([4]; 125 g ai/ha) | Plant response rating, Lambsquarters ([7]; 31 g ai/ha) | Plant response rating, Foxtail, Green ([8]; 62 g ai/ha) | Plant response rating, Field Violet ([10]; 62 g ai/ha) | Plant response rating, Field Violet ([10]; 125 g ai/ha) | Plant response rating, Deadnettle ([12]; 125 g ai/ha)
75: Plant response rating, Russian Thistle ([1]; 31 g ai/ha) | Plant response rating, Geranium, Cutleaf ([2]; 31 g ai/ha) | Plant response rating, Canada Thistle ([4]; 16 g ai/ha) | Plant response rating, Windgrass ([6]; 125 g ai/ha)
30: Plant response rating, Mustard, Wild ([14]; 62 g ai/ha)
90: Plant response rating, Lambsquarters ([7]; 16 g ai/ha) | Plant response rating, Lambsquarters ([7]; 62 g ai/ha) | Plant response rating, Foxtail, Green ([8]; 31 g ai/ha)
25: Plant response rating, Bromegrass, Downy ([3]; 125 g ai/ha) | Plant response rating, Windgrass ([6]; 31 g ai/ha) | Plant response rating, Mustard, Wild ([14]; 31 g ai/ha) | Plant response rating, Radish, Wild ([15]; 125 g ai/ha)
35: Plant response rating, Deadnettle ([12]; 16 g ai/ha) | Plant response rating, Canarygrass ([13]; 125 g ai/ha)
5: Plant response rating, Bromegrass, Downy ([3]; 31 g ai/ha) | Plant response rating, Bluegrass ([5]; 31 g ai/ha) | Plant response rating, Bluegrass ([5]; 62 g ai/ha)
65: Plant response rating, Geranium, Cutleaf ([2]; 16 g ai/ha)
15: Plant response rating, Windgrass ([6]; 16 g ai/ha) | Plant response rating, Canarygrass ([13]; 31 g ai/ha) | Plant response rating, Radish, Wild ([15]; 62 g ai/ha)
50: Plant response rating, Windgrass ([6]; 62 g ai/ha) | Plant response rating, Speedwell ([16]; 16 g ai/ha)
60: Plant response rating, Mustard, Wild ([14]; 125 g ai/ha) | Plant response rating, Speedwell ([16]; 31 g ai/ha)
10: Plant response rating, Bromegrass, Downy ([3]; 62 g ai/ha) | Plant response rating, Bluegrass ([5]; 125 g ai/ha) | Plant response rating, Canarygrass ([13]; 16 g ai/ha)
100: Plant response rating, Pigweed ([9]; 62 g ai/ha) | Plant response rating, Pigweed ([9]; 125 g ai/ha) | Plant response rating, Buckwheat, Wild ([11]; 16 g ai/ha) | Plant response rating, Buckwheat, Wild ([11]; 125 g ai/ha) | Plant response rating, Field Poppy ([17]; 62 g ai/ha) | Plant response rating, Field Poppy ([17]; 125 g ai/ha) | Plant response rating, Chickweed ([18]; 62 g ai/ha) | Plant response rating, Chickweed ([18]; 125 g ai/ha)
98: Plant response rating, Lambsquarters ([7]; 125 g ai/ha) | Plant response rating, Foxtail, Green ([8]; 125 g ai/ha) | Plant response rating, Pigweed ([9]; 16 g ai/ha) | Plant response rating, Pigweed ([9]; 31 g ai/ha) | Plant response rating, Buckwheat, Wild ([11]; 31 g ai/ha)
0: Plant response rating, Bromegrass, Downy ([3]; 16 g ai/ha) | Plant response rating, Bluegrass ([5]; 16 g ai/ha) | Plant response rating, Radish, Wild ([15]; 16 g ai/ha) | Plant response rating, Radish, Wild ([15]; 31 g ai/ha)
80: Plant response rating, Russian Thistle ([1]; 16 g ai/ha) | Plant response rating, Russian Thistle ([1]; 62 g ai/ha) | Plant response rating, Geranium, Cutleaf ([2]; 62 g ai/ha) | Plant response rating, Field Violet ([10]; 16 g ai/ha) | Plant response rating, Field Violet ([10]; 31 g ai/ha) | Plant response rating, Deadnettle ([12]; 31 g ai/ha) | Plant response rating, Speedwell ([16]; 62 g ai/ha) | Plant response rating, Field Poppy ([17]; 16 g ai/ha)

Cc1cc(Cl)c2ccccc2c1-c1c(O)c(Cl)nn(C)c1=O [Cpd. No. 65]
75: Plant response rating, Bulrush, Japanese ([19]; 62 g ai/ha)
90: Plant response rating, Bulrush, Japanese ([19]; 125 g ai/ha)
